# According to US20230023559A1, “ARYLMETHYLENE HETEROCYCLIC COMPOUNDS AS KV1.3 POTASSIUM SHAKER CHANNEL BLOCKERS” (D. E. Shaw Research, LLC, priority 2019, published 2023):
# What was measured:
# [1] = target: T1, Kv1.3 potassium channel (Homo sapiens, UniProt P22001); test: Kv1.3 potassium channel blocker activity, automated whole-cell patch clamp (Patchliner); assay type: cell-based; conditions: CHO-K1 cells stably expressing Kv1.3; whole cell current inhibition; read-out: Kv1.3_IC50
# T1 construct: expressed in transfected cells
# Procedure, shortened: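 CHO-K1 cells stably expressing Kv1.3, automated whole-cell patch clamp. Currents evoked by 100 ms steps from −90 mV holding to +40 mV at 0.1 Hz, sampled at 10 kHz unfiltered, P/4 leak subtraction; peak current inhibition measured, compound incubation ≤10 s between pulse trains.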
# [2] = target: hERG channel (Homo sapiens, UniProt Q12809); test: hERG electrophysiology, automated whole-cell patch clamp (Patchliner)
# Sequence of hERG channel (Q12809 whole entry): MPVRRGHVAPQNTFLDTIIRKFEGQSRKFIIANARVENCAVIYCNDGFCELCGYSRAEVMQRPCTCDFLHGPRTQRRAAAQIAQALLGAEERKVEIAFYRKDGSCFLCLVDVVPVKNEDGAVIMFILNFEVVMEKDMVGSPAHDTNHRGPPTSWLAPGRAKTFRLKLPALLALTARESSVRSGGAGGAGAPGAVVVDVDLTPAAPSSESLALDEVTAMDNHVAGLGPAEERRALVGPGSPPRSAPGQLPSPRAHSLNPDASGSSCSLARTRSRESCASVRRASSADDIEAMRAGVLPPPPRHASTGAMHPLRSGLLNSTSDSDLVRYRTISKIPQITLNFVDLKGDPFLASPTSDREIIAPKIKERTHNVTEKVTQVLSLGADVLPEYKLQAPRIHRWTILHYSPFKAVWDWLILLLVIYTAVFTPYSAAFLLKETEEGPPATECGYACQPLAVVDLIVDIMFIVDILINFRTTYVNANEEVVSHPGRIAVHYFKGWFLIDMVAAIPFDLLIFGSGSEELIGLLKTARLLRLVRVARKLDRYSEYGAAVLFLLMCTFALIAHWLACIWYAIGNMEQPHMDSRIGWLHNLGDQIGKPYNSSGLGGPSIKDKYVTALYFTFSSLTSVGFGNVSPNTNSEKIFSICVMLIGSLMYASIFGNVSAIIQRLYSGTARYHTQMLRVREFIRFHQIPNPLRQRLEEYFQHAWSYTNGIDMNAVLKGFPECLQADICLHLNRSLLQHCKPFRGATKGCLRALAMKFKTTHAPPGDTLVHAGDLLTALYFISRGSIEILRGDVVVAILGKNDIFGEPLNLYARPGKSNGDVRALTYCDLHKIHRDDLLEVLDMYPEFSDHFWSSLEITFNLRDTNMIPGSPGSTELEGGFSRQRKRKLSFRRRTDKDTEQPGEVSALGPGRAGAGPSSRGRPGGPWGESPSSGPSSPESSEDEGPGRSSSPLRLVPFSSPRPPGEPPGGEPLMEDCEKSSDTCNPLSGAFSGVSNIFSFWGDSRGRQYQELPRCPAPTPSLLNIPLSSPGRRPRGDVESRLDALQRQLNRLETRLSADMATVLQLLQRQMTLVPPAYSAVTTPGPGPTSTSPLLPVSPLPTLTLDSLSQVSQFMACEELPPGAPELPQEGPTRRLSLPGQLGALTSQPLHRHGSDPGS
# T1 sequence (P22001 whole entry): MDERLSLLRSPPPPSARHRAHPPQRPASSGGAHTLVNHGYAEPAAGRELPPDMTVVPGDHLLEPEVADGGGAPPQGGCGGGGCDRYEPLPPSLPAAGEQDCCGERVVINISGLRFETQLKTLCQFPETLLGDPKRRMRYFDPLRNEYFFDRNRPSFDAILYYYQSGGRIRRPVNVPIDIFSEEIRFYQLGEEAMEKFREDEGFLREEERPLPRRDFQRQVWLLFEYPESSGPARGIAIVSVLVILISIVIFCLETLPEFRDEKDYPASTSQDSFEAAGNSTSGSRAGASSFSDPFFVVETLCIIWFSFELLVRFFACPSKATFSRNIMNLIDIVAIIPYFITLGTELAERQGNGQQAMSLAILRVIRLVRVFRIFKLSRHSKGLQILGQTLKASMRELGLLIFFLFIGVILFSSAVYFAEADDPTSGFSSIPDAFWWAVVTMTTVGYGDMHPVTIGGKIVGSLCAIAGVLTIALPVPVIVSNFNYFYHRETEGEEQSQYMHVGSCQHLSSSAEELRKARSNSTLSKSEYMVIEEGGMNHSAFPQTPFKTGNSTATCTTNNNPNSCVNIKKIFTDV
Compound,IC50 [1] [µM],IC50 [2] [µM]
"N[C@@H](c1cc(Cl)c(Cl)cc1O)C1CCN(S(=O)(=O)CCO)CC1 [Compound 145, (R)-2-(amino(1-((2-hydroxyethyl)sulfonyl)piperidin-4-yl)methyl)-4,5-dichlorophenol Trifluoroacetic Acid]",< 0.5,< 30
"Nc1cccc(N2CCC([C@@H](N)c3cc(Cl)c(Cl)cc3O)CC2)n1 [Compound 146, (R)-2-(amino(1-(6-aminopyridin-2-yl)piperidin-4-yl)methyl)-4,5-dichlorophenol Trifluoroacetic Acid]",< 10,< 30
"Nc1ccc(N2CCC([C@@H](N)c3cc(Cl)c(Cl)cc3O)CC2)nc1 [Compound 147, (R)-2-(amino(1-(5-aminopyridin-2-yl)piperidin-4-yl)methyl)-4,5-dichlorophenol Trifluoroacetic Acid]",< 0.5,< 30
"N[C@@H](c1cc(Cl)c(Cl)cc1O)C1CCN(C(=O)N2CC(O)C2)CC1 [Compound 148, 1-[4-[(R)-amino(4,5-dichloro-2-hydroxyphenyl)methyl]piperidine-1-carbonyl]azetidin-3-ol Trifluoroacetic Acid]",< 0.5,> 30
"N[C@@H](c1cc(Cl)c(Cl)cc1O)C1CCN(c2cn[nH]c2)CC1 [Compound 149, 2-[(R)-amino[1-(1H-pyrazol-4-yl)piperidin-4-yl]methyl]-4,5-dichlorophenol Trifluoroacetic Acid]",< 10,< 30
"Cc1[nH]ncc1C(=O)N1CCC([C@@H](N)c2cc(Cl)c(Cl)cc2O)CC1 [Compound 153, 2-[(R)-amino[1-(3-methyl-1H-pyrazole-4-carbonyl)piperidin-4-yl]methyl]-4,5-dichlorophenol trifluoroacetic acid]",< 0.5,> 30
"N[C@@H](c1cc(Cl)c(Cl)cc1O)C1CCN(C(=O)c2cn[nH]n2)CC1 [Compound 157, 2-[(R)-amino[1-(1H-1,2,3-triazole-4-carbonyl)piperidin-4-yl]methyl]-4,5-dichlorophenol trifluoroacetic acid]",< 0.5,> 30

# Further lines, with some results ahead:
IC50 [1] [µM],Compound,IC50 [2] [µM]
< 0.5,"Nc1ccnc(N2CCC([C@@H](N)c3cc(Cl)c(Cl)cc3O)CC2)c1 [Compound 150, (R)-2-(amino(1-(4-aminopyridin-2-yl)piperidin-4-yl)methyl)-4,5-dichlorophenol Trifluoroacetic Acid]",< 30
< 10,"Nc1nnc(N2CCC([C@@H](N)c3cc(Cl)c(Cl)cc3O)CC2)s1 [Compound 151, 2-[(R)-amino[1-(5-amino-1,3,4-thiadiazol-2-yl)piperidin-4-yl]methyl]-4,5-dichlorophenol Trifluoroacetic Acid]",< 30
< 10,"N[C@@H](c1cc(Cl)c(Cl)cc1O)C1CCN(C(=O)c2nnc[nH]2)CC1 [Compound 152, (R)-(4-(amino(4,5-dichloro-2-hydroxyphenyl)methyl)piperidin-1-yl)(1H-1,2,4-triazol-3-yl)methanone trifluoroacetic acid]",> 30
< 10,"N[C@@H](c1cc(Cl)c(Cl)cc1O)C1CCN(c2ccn[nH]2)CC1 [Compound 154, 2-[(R)-amino[1-(1H-pyrazol-3-yl)piperidin-4-yl]methyl]-4,5-dichlorophenol Trifluoroacetic Acid]",> 30
< 10,"Nc1nnc(C(=O)N2CCC([C@@H](N)c3cc(Cl)c(Cl)cc3O)CC2)o1 [Compound 155, 2-[(R)-amino[1-(5-amino-1,3,4-oxadiazole-2-carbonyl)piperidin-4-yl]methyl]-4,5-dichlorophenol trifluoroacetic acid]",> 30
< 10,"CC(C)C(N)C(=O)N1CCC([C@@H](N)c2cc(Cl)c(Cl)cc2O)CC1 (stereo partly drawn) [Compound 156, 2-amino-1-[4-[(R)-amino(4,5-dichloro-2-hydroxyphenyl)methyl]piperidin-1-yl]-3-methylbutan-1-one trifluoroacetic acid]",> 30
